Key:
Type in all cases: cell-based
DLD-1 = assay: MTS assay (cell growth inhibition), DLD-1; details: DLD-1 cells, 72 hours incubation with test compound; concentration not given
Description: (§1) Cells were maintained at 37° C., 5% CO2 in DMEM media supplemented with 1% fetal bovine serum, penicillin/streptomycin and fungizone (Invitrogen). Cells were seeded into 96-well tissue culture plates at 3000 per well and cultured at 37° C. for 18 hours. Test compounds were dissolved and diluted to 300× in DMSO then diluted 1:40 in DMEM. Cells were incubated with test compounds for 72 hours followed by incubation with tetrazolium compound (3-(4,5-dimethylthiazol-2-yl)-5-(3-carboxymethoxyphenyl)-2-(4-sulfophenyl)-2H-tetrazolium, inner salt; MTS) and the electron coupling reagent, phenazine methosulfate (PMS) for 4 hours. […] The ability of compounds to inhibit cell growth in this assay is correlated with the reduction of dehydrogenase enzyme activity found in metabolically active cells. The measurement of the absorbance of the formazan was assessed using an ENVISION™ (Perkin Elmer) microplate reader at 492 nm. The calculated IC50 value is the concentration of the test compound that causes a 50% decrease in the absorbance.

MDA-MB = assay: MTS assay (cell growth inhibition), MDA-MB; details: MDA-MB cells, 72 hours incubation with test compound; concentration not given
Description: as §1

PC-3 = assay: MTS assay (cell growth inhibition), PC-3; details: PC-3 cells, 72 hours incubation with test compound; concentration not given
Description: as §1

Kato III = assay: MTS assay (cell growth inhibition), Kato III; details: Kato III cells, 72 hours incubation with test compound; concentration not given
Description: as §1

PACA-2 = assay: MTS assay (cell growth inhibition), PACA-2; details: PACA-2 cells, 72 hours incubation with test compound; concentration not given
Description: as §1

NCI-H1299 = assay: MTS assay (cell growth inhibition), NCI-H1299; details: NCI-H1299 cells, 72 hours incubation with test compound; concentration not given
Description: as §1

| SMILES | MTS CELL KILL DATA (% INHIBITION) DLD-1 (DLD-1) | MTS CELL KILL DATA (% INHIBITION) MDA-MB (MDA-MB) | MTS CELL KILL DATA (% INHIBITION) PC-3 (PC-3) | MTS CELL KILL DATA (% INHIBITION) Kato III (Kato III) | MTS CELL KILL DATA (% INHIBITION) PACA-2 (PACA-2) | MTS CELL KILL DATA (% INHIBITION) NCI-H1299 (NCI-H1299) |
| --- | --- | --- | --- | --- | --- | --- |
| O=C1c2cnc3[nH]ncc3c2C(=O)N1CC1CCOC1 (stereo not drawn) [Example 85, 7-(tetrahydrofuran-3-ylmethyl)pyrazolo[3,4-b]pyrrolo[3,4-d]pyridine-6,8(3H,7H)-dione] | C (C = <50% INHIBITION) | C (C = <50% INHIBITION) | C (C = <50% INHIBITION) | C (C = <50% INHIBITION) | C (C = <50% INHIBITION) | C (C = <50% INHIBITION) |
| O=C1c2cnc3[nH]ncc3c2C(=O)N1CC1CCCO1 (stereo not drawn) [Example 107, 7-(tetrahydrofuran-2-ylmethyl)pyrazolo[3,4-b]pyrrolo[3,4-d]pyridine-6,8(3H,7H)-dione] | C (C = <50% INHIBITION) | B (B = 50-79% INHIBITION) | B (B = 50-79% INHIBITION) | C (C = <50% INHIBITION) | C (C = <50% INHIBITION) | C (C = <50% INHIBITION) |
| Cc1cccc(N(CCC#N)CCN2C(=O)c3cnc4[nH]ncc4c3C2=O)c1 [Example 134, 3-{[2-(6,8-dioxo-6,8-dihydropyrazolo[3,4-b]pyrrolo[3,4-d]pyridin-7(3H)-yl)ethyl](3-methylphenyl)amino}propanenitrile] | C (C = <50% INHIBITION) | C (C = <50% INHIBITION) | C (C = <50% INHIBITION) | C (C = <50% INHIBITION) | C (C = <50% INHIBITION) | C (C = <50% INHIBITION) |
| CC(C)OCCN1C(=O)c2cnc3[nH]ncc3c2C1=O [Example 16, 7-(2-isopropoxyethyl)pyrazolo[3,4-b]pyrrolo[3,4-d]pyridine-6,8(3H,7H)-dione] | C (C = <50% INHIBITION) | B (B = 50-79% INHIBITION) | C (C = <50% INHIBITION) | C (C = <50% INHIBITION) | B (B = 50-79% INHIBITION) | C (C = <50% INHIBITION) |
| CC(C)(C)c1ccc(CN2C(=O)c3cnc4[nH]ncc4c3C2=O)cc1 [Example 47, 7-(4-tert-butylbenzyl)pyrazolo[3,4-b]pyrrolo[3,4-d]pyridine-6,8(3H,7H)-dione,] | C (C = <50% INHIBITION) | C (C = <50% INHIBITION) | C (C = <50% INHIBITION) | C (C = <50% INHIBITION) | C (C = <50% INHIBITION) | C (C = <50% INHIBITION) |
| CCCCN(CCCC)CCN1C(=O)c2cnc3[nH]ncc3c2C1=O [Example 18, 7-[2-(dibutylamino)ethyl]pyrazolo[3,4-b]pyrrolo[3,4-d]pyridine-6,8(3H,7H)-dione] | C (C = <50% INHIBITION) | A (A = 80-100% INHIBITION) | A (A = 80-100% INHIBITION) | C (C = <50% INHIBITION) | C (C = <50% INHIBITION) | C (C = <50% INHIBITION) |
